Laboratory results published in ChEMBL document CHEMBL1201862, “PubChem BioAssay data set” (2004).
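Dose response: 5 concentrations. Exposure: 48 h. Format: 96-well plates. Endpoint: linear interpolation; highest concentration if not reached. GI50 is the concentration that inhibits growth by half.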 Calls of active or inactive are those of the source. Cut-off read from the data, not from the text of the source: active = GI50 up to about 1.1 µM and inactive = higher. Where a SMILES comes first, the peptide text is derived from it. [ ]: non-standard residue; d: D form. The star is where a group is joined. ξ: configuration not given here. ξPhe(4-NO2) = NC(Cc1ccc([N+](=O)[O-])cc1)C(=O)O; Boc = CC(C)(C)OC(=O)*; OBn = c1ccc(CO*)cc1

Tests used:
Experiment in all cases: DTP human tumour cell line panel, 48 h
[1] = tested on: HCT-15
[2] = tested on: MDA-MB-231
[3] = tested on: RPMI-8226
[4] = tested on: SK-MEL-5
[5] = tested on: Malme-3M
[6] = tested on: 786-0
[7] = tested on: M14
[8] = tested on: OVCAR-4
[9] = tested on: COLO 205
[10] = tested on: SF-539
[11] = tested on: SR
[12] = tested on: UACC-62
[13] = tested on: DU-145
[14] = tested on: NCI-H226
[15] = tested on: TK-10
[16] = tested on: OVCAR-8
[17] = tested on: HOP-62
[18] = tested on: HT-29
[19] = tested on: UO-31

SMILES | GI50 [1] [µM] | GI50 [2] | GI50 [3] | GI50 [4] | GI50 [5] | GI50 [6] | GI50 [7] | GI50 [8] | GI50 [9] | GI50 [10] | GI50 [11] | GI50 [12] | GI50 [13] | GI50 [14] | GI50 [15] | GI50 [16] | GI50 [17] | GI50 [18] | GI50 [19]
O=[N+]([O-])c1ccc2c(c1)n1c(N3CCCC3)[n+]3ccccc3c1c1c3ccccn3c(N3CCCC3)[n+]21.[O-][Cl+3]([O-])([O-])[O-].[O-][Cl+3]([O-])([O-])[O-] | > 100 | > 100 µM (inactive) | > 100 µM (inactive) | > 100 µM (inactive) | 68.9 µM (inactive) | > 100 µM (inactive) | > 100 µM (inactive) | > 100 µM (inactive) | 54 µM (inactive) | 39.5 µM (inactive) | > 100 µM (inactive) | > 100 µM (inactive) | > 100 µM (inactive) | 44.3 µM (inactive) | > 100 µM (inactive) | > 100 µM (inactive) | – | – | –
CN(CCc1ccc(Cl)c(Cl)c1)[C@H]1CCCC[C@H]1N1CCCC1 | > 100 | > 100 µM (inactive) | > 100 µM (inactive) | > 100 µM (inactive) | > 100 µM (inactive) | > 100 µM (inactive) | > 100 µM (inactive) | > 100 µM (inactive) | > 100 µM (inactive) | – | > 100 µM (inactive) | > 100 µM (inactive) | > 100 µM (inactive) | > 100 µM (inactive) | > 100 µM (inactive) | > 100 µM (inactive) | > 100 µM (inactive) | > 100 µM (inactive) | > 100 µM (inactive)
COc1ccc2[nH]c3c(c2c1)CCc1c(OC)cccc1-3 | > 100 | > 100 µM (inactive) | 51.9 µM (inactive) | > 100 µM (inactive) | 75.2 µM (inactive) | > 100 µM (inactive) | > 100 µM (inactive) | 40.3 µM (inactive) | > 100 µM (inactive) | – | > 100 µM (inactive) | > 100 µM (inactive) | > 100 µM (inactive) | > 100 µM (inactive) | > 100 µM (inactive) | > 100 µM (inactive) | 53.8 µM (inactive) | > 100 µM (inactive) | > 100 µM (inactive)
S=C1/C(=N/c2ccccc2)N(c2ccccc2)/C(=N\c2cccc[n+]2Cc2ccccc2)N1c1ccccc1 | 21.4 | 14.9 µM (inactive) | 17.4 µM (inactive) | 12.8 µM (inactive) | 14.4 µM (inactive) | 15.8 µM (inactive) | 12.9 µM (inactive) | – | 17.1 µM (inactive) | 16.3 µM (inactive) | 15.3 µM (inactive) | 11.9 µM (inactive) | 28.1 µM (inactive) | 19.3 µM (inactive) | 26.3 µM (inactive) | 17.9 µM (inactive) | 13 µM (inactive) | 16.4 µM (inactive) | 16.4 µM (inactive)
CCn1c(=O)c2c3ccc(OC(C)=O)cc3[nH]c2c2ccc(OC(C)=O)cc21 | 62.2 | 33.1 µM (inactive) | – | 30.8 µM (inactive) | 32.2 µM (inactive) | 58.1 µM (inactive) | 45.3 µM (inactive) | 57.4 µM (inactive) | 30.9 µM (inactive) | 39 µM (inactive) | 36.6 µM (inactive) | 24.1 µM (inactive) | 18.5 µM (inactive) | 24.8 µM (inactive) | 51.5 µM (inactive) | 31.3 µM (inactive) | 58.1 µM (inactive) | 43.3 µM (inactive) | 44.1 µM (inactive)
CC(C)(C)OC(=O)NC(Cc1ccc([N+](=O)[O-])cc1)C(=O)NCC(=O)OCc1ccccc1 (centres undefined) (Boc-[ξPhe(4-NO2)]-Gly-OBn) | 19.4 | 31.3 µM (inactive) | 21 µM (inactive) | 19.4 µM (inactive) | 23.8 µM (inactive) | 11.4 µM (inactive) | 19.5 µM (inactive) | 25.9 µM (inactive) | 17.1 µM (inactive) | – | 31.6 µM (inactive) | 17 µM (inactive) | 30.1 µM (inactive) | 26.7 µM (inactive) | > 100 µM (inactive) | 22.2 µM (inactive) | 17.3 µM (inactive) | 25.5 µM (inactive) | 23.9 µM (inactive)
Nc1nc(Cl)cc(NCC2(CO)CC(OCc3ccccc3)C2)n1 (centres undefined) | 65.6 | 63.2 µM (inactive) | 45.9 µM (inactive) | 7 µM (inactive) | > 100 µM (inactive) | > 100 µM (inactive) | – | 27.5 µM (inactive) | > 100 µM (inactive) | > 100 µM (inactive) | 25.1 µM (inactive) | 96.4 µM (inactive) | > 100 µM (inactive) | 25.6 µM (inactive) | 19.4 µM (inactive) | 71.6 µM (inactive) | 68.4 µM (inactive) | > 100 µM (inactive) | > 100 µM (inactive)
